Patent publication US9868737B2, “Pyridino[1,2-A]pyrimidone analogue used as MTOR/P13K inhibitor” (CISEN PHARMACEUTICAL CO., LTD., priority 2014, dated 2018)
Read-outs that look alike come from different tables or passages of the source.

How the values were obtained:
[1] = molecular target: T1, mTOR kinase (Homo sapiens, UniProt P42345); test: mTOR kinase assay; assay type: biochemical; details: in vitro enzyme activity assay; ATP 100 μM; read-out: mTOR enzyme activity_IC50
T1 construct: made in house
Experimental: 2. Experimental Procedures and Methods of the mTOR Kinase Assay
The objective was to evaluate the inhibitory effect of the subject samples on the mTOR kinase activity at molecular level.
(§1) PerkinElmer Envision 2104 Multilabel Reader.
The mTOR Kinase Assay (384 wells) was purchased from PerkinElmer company; the mTOR kinase was made in our lab.
Each solution was prepared according to the instructions provided in the mTOR Kinase Assay. The kinase reaction was carried out in white 384-well plates (Proxiplate-384 plus). 2.5 μl of DMSO (the concentration was consistent with the highest concentration of DMSO for the test compounds) was added to each of the two control wells with and without enzyme, and then 2.5 μl of a series of different concentrations of the test compounds was added to each test well. ULight-4E-BP1 (Thr37/46) PeptideATP mix (the final concentration of ATP was 100 μM) and 5 μl of mTOR kinase were added to the control well containing enzyme as well as the test wells, and fully mixed. The plate was sealed with Parafilm and incubated for 2 h. Then 5 μl of stop solution was added and incubated for 5 minutes. Afterwards, 5 μl of Detection Mix (Eu-anti-phospho-4E-BP1 (Thr37/46) Antibody, the final concentration was 2 nM) was added and incubated for 1 h, and then the mixture was detected.
(§2) The IC50 value was calculated through the GraphPad software after plotting the relative inhibitory rate versus concentration.

[2] = molecular target: T2, PI3K (p110α) kinase (Homo sapiens, UniProt P42336); test: PI3K (p110α) kinase assay (PI3K HTRF Assay); assay type: biochemical; details: in vitro enzyme activity assay, 10 μM PIP2, read-out: PI3K (p110α) enzyme activity_IC50
T2 construct: made in house
Excerpt: Conclusion: The compounds of the present invention have significant inhibitory effect on mTOR/PI3K. Example In Vitro Enzyme Activity Assay 1. The experimental procedures and methods of PI3K (p110α) kinase assay: 1) Experimental Objective
The objective was to evaluate the inhibitory effect of the subject samples on PI3K (p110α) kinase activity at molecular level.
as §1
PI 3-Kinase HTRF Assay (384 wells) was purchased from Upstate (Millipore) company: PI3K (p110α) kinase was made in our lab.
c) Experimental procedures
Each solution was prepared according to the instructions provided in the Kinase PI 3-Kinase HTRF Assay. The kinase reaction was carried out in white 384-well plates (Proxiplate-384 plus), 0.5 μl of DMSO (the concentration was consistent with the highest concentration of DMSO for the test compounds) was added to each of the two control wells with and without enzyme, and then 0.5 μl of a series of different concentrations of the test compounds was added to each well to be tested. The kinase reaction liquid (10 μM substrate PIP2, 0.5 ng PI3K (p110α)) was added to the control well containing enzyme and the test wells, while only working reaction liquid (10 μM substrate PIP2) was added to the control well without enzyme, and finally, 5 μM ATP working reaction liquid was added to activate the reaction. After the reaction was carried out at room temperature for 30 min, the stop solution was added to each well to terminate the kinase reaction. After the mixture was fully mixed, the detection liquid was added to each well and fully mixed. The plate was sealed with Parafilm and placed in the dark. After incubated overnight, the mixture was detected.
as §2

[3] = system: MCF-7 cells; test: In vitro test of cell activity (MCF-7 cells, insulin stimulation, ELISA-One fluorescence); assay type: cell-based; details: Homo sapiens, MCF7, MCF-7 cells; for inhibition at 0.25 µM: conc. 0.25 μM; for inhibition at 0.5 µM: conc. 0.5 μM; for inhibition at 1 µM: conc. 1 μM
How it was run: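 Fluorescence ELISA-One read-out on cell lysates, antibody-captured 1 h at room temperature. Before lysis, MCF-7 cells (2.5×10^4/well) were pretreated 2 h with compound in serum-free medium, single dose for screening or a dilution series for IC50, then stimulated 30 min with insulin ([…] final).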

T2 sequence (P42336 whole entry): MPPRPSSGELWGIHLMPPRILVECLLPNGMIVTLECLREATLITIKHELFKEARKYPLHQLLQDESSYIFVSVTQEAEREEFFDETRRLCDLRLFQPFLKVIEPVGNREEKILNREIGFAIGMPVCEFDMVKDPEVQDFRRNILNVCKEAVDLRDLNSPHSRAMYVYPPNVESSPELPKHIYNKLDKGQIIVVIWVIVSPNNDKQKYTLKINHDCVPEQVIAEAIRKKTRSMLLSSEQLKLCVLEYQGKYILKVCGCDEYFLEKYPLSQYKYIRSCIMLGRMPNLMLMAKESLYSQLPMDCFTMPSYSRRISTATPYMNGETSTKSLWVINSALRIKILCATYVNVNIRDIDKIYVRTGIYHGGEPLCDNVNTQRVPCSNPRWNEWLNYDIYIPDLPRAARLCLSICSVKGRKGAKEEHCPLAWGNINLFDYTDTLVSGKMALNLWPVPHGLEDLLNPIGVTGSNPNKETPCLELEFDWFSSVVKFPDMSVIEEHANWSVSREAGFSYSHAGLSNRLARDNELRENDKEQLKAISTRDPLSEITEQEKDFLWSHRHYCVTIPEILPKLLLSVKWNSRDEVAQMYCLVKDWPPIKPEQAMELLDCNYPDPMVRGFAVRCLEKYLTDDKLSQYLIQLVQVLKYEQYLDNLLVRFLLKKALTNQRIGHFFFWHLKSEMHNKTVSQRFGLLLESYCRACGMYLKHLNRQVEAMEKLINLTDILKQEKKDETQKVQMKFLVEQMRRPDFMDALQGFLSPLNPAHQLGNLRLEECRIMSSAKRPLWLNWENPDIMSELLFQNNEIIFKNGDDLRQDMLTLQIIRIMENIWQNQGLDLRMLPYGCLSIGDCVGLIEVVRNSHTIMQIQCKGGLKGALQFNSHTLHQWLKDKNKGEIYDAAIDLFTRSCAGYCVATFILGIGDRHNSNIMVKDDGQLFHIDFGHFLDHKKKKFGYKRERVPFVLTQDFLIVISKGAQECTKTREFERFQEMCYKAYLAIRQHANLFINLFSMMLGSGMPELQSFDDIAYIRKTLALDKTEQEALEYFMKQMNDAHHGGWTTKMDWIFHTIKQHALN

| SMILES | IC50 [1] [nM] | IC50 [2] [nM] | IC50 ([3]; read-out: IC50 p-AKT) [nM] | IC50 ([3]; read-out: IC50 p-p70S6K) [nM] | inhibition at 0.25 µM ([3]; read-out: % inhibition AKT) [%] | inhibition at 0.25 µM ([3]; read-out: % inhibition p70s6k) [%] | inhibition at 0.5 µM ([3]; read-out: % inhibition AKT) [%] | inhibition at 0.5 µM ([3]; read-out: % inhibition p70s6k) [%] | inhibition at 1 µM ([3]; read-out: % inhibition AKT) [%] | inhibition at 1 µM ([3]; read-out: % inhibition p70s6k) [%] |
| --- | --- | --- | --- | --- | --- | --- | --- | --- | --- | --- |
| COc1ncc(-c2ccc3ncc(OC)c(=O)n3c2)cc1NS(=O)(=O)c1ccc(F)cc1Cl [compound 104] | 10 to 50 | 1 to 10 | ≤ 50 | ≤ 50 | – | – | 95.2 | 91.7 | – | – |
| COc1ncc(-c2ccc3ncc(C)c(=O)n3c2)cc1NS(=O)(=O)c1ccc(F)cc1F [compound 81, 2,4-difluoro-N-(2-methoxy-5-(3-methyl-4-oxo-4H-pyrido[1,2-a]pyrimidin-7-yl)pyridin-3-yl)benzsulfamide] | 1 to 10 | 1 to 10 | ≤ 50 | 100 to 250 | – | – | 90.1 | 85.5 | – | – |
| COc1ncc(-c2ccc3ncc(Cl)c(=O)n3c2)cc1NS(=O)(=O)c1ccc(F)cc1F [compound 132, N-(5-(3-chloro-4-oxo-4H-pyrido[1,2-a]pyrimidin-7-yl)-2-methoxypyridin-3-yl)-2,4-difluorobenzsulfamide] | 1 to 10 | 1 to 10 | ≤ 50 | 100 to 250 | – | – | 93 | 88.8 | – | – |
| COc1ncc(-c2ccc3nccc(=O)n3c2)cc1NS(=O)(=O)c1ccc(C)cc1F [compound 28] | 10 to 50 | 1 to 10 | ≤ 50 | 50 to 100 | – | – | – | – | 96.2 | 93.9 |
| COc1ncc(-c2ccc3nccc(=O)n3c2)cc1NS(=O)(=O)c1ccc(F)cc1Cl [compound 25] | 10 to 50 | 1 to 10 | ≤ 50 | 50 to 100 | – | – | – | – | 95.1 | 94.1 |
| COc1ncc(-c2ccc3ncc(F)c(=O)n3c2)cc1NS(=O)(=O)c1ccc(F)cc1F [compound 61, 2,4-difluoro-N-(5-(3-fluoro-4-oxo-4H-pyrido[1,2-a]pyrimidin-7-yl)-2-methoxypyridin-3-yl)benzsulfamide] | ≤ 1 | 10 to 50 | ≤ 50 | ≤ 50 | – | – | 78.9 | 89.7 | – | – |
| COc1ncc(-c2ccc3ncc(Cl)c(=O)n3c2)cc1NS(=O)(=O)c1c(Cl)cccc1Cl [compound 149] | 1 to 10 | 1 to 10 | ≤ 50 | ≤ 50 | 92 | 80.7 | – | – | – | – |
| COc1ncc(-c2ccc3nccc(=O)n3c2)cc1NS(=O)(=O)c1ccc(Cl)s1 [compound 36] | 1 to 10 | 1 to 10 | ≤ 50 | ≤ 50 | – | – | 96.4 | 94.7 | – | – |
| COc1ncc(-c2ccc3nccc(=O)n3c2)cc1NS(=O)(=O)c1ccc(F)cc1C [compound 26] | 10 to 50 | 1 to 10 | ≤ 50 | 50 to 100 | – | – | – | – | 95.6 | 93.7 |
| COc1ncc(-c2ccc3nccc(=O)n3c2)cc1NS(=O)(=O)c1ccc(F)cc1F [compound 1, 2,4-difluoro-N-(2-methoxy-5-(4-oxo-4H-pyrido[1,2-a]pyrimidin-7-yl)pyridin-3-yl)benzsulfamide] | 10 to 50 | 1 to 10 | ≤ 50 | 50 to 100 | – | – | – | – | 97.5 | 42.4 |
| COc1ncc(-c2ccc3ncc(OCCCF)c(=O)n3c2)cc1NS(=O)(=O)c1ccc(F)cc1Cl [compound 243] | – | ≤ 1 | ≤ 50 | – | – | – | – | – | – | – |
| COCCOc1cnc2ccc(-c3cnc(OC)c(NS(=O)(=O)c4ccc(Cl)cc4Cl)c3)cn2c1=O [compound 263] | – | ≤ 1 | 50 to 100 | – | – | – | – | – | – | – |
| COCCOc1cnc2ccc(-c3cnc(OC)c(NS(=O)(=O)c4ccc(Cl)cc4F)c3)cn2c1=O [compound 271] | – | ≤ 1 | 50 to 100 | – | – | – | – | – | – | – |
| COc1ncc(-c2ccc3ncc(OCC4COC4)c(=O)n3c2)cc1NS(=O)(=O)c1ccc(F)cc1C [compound 255] | – | ≤ 1 | 100 to 250 | – | – | – | – | – | – | – |
| COCCOc1cnc2ccc(-c3cnc(OC)c(NS(=O)(=O)c4cccc(Cl)c4C)c3)cn2c1=O [compound 261] | – | ≤ 1 | 50 to 100 | – | – | – | – | – | – | – |
| COCCOc1cnc2ccc(-c3cnc(OC)c(NS(=O)(=O)c4ccccc4Cl)c3)cn2c1=O [compound 253] | – | ≤ 1 | ≤ 50 | – | – | – | – | – | – | – |
| COCCOc1cnc2ccc(-c3cnc(OC)c(NS(=O)(=O)c4ccc(C)cc4C)c3)cn2c1=O [compound 244] | – | ≤ 1 | 50 to 100 | – | – | – | – | – | – | – |

The next lines start with results.

| IC50 [1] [nM] | IC50 [2] [nM] | IC50 ([3]; read-out: IC50 p-AKT) [nM] | IC50 ([3]; read-out: IC50 p-p70S6K) [nM] | SMILES | inhibition at 0.25 µM ([3]; read-out: % inhibition AKT) [%] | inhibition at 0.25 µM ([3]; read-out: % inhibition p70s6k) [%] | inhibition at 0.5 µM ([3]; read-out: % inhibition AKT) [%] | inhibition at 0.5 µM ([3]; read-out: % inhibition p70s6k) [%] | inhibition at 1 µM ([3]; read-out: % inhibition AKT) [%] | inhibition at 1 µM ([3]; read-out: % inhibition p70s6k) [%] |
| --- | --- | --- | --- | --- | --- | --- | --- | --- | --- | --- |
| 50 to 100 | ≤ 1 | ≤ 50 | ≤ 50 | CCOc1cnc2ccc(-c3cnc(OC)c(NS(=O)(=O)c4ccc(Cl)s4)c3)cn2c1=O [compound 174] | 92.5 | 78.4 | – | – | – | – |
| 1 to 10 | ≤ 1 | ≤ 50 | 50 to 100 | COc1ncc(-c2ccc3ncc(Cl)c(=O)n3c2)cc1NS(=O)(=O)c1ccc(F)cc1Cl [compound 135] | – | – | 95.2 | 87.6 | – | – |
| ≤ 1 | ≤ 1 | ≤ 50 | ≤ 50 | COc1ncc(-c2ccc3ncc(Cl)c(=O)n3c2)cc1NS(=O)(=O)c1ccc(Cl)s1 [compound 144] | – | – | 95.8 | 89.4 | – | – |
| 1 to 10 | ≤ 1 | ≤ 50 | 50 to 100 | COc1ncc(-c2ccc3ncc(C)c(=O)n3c2)cc1NS(=O)(=O)c1ccc(F)cc1Cl [compound 83] | – | – | 95 | 87.9 | – | – |
| 1 to 10 | ≤ 1 | ≤ 50 | ≤ 50 | COc1ncc(-c2ccc3ncc(Cl)c(=O)n3c2)cc1NS(=O)(=O)c1sccc1Cl [compound 150] | 93.5 | 82.3 | – | – | – | – |
| 10 to 50 | ≤ 1 | ≤ 50 | 50 to 100 | COc1ncc(-c2ccc3nccc(=O)n3c2)cc1NS(=O)(=O)c1ccccc1Cl [compound 30] | – | – | – | – | 95 | 93.4 |
| 1 to 10 | ≤ 1 | ≤ 50 | ≤ 50 | COc1ncc(-c2ccc3ncc(Cl)c(=O)n3c2)cc1NS(=O)(=O)c1sc(C)nc1C [compound 153] | 91.6 | 83.5 | – | – | – | – |
